The subject of experiment [1] is neuronal uptake of 5-hydroxytryptamine and noradrenaline. The experiment can be described thus: Overall assessment of the uptake tests (selectivity NA versus 5-HT). Details: species or system mouse. The conditions noted are these: summary of the results of Table I.
Experiment [2] relates to neuronal uptake of noradrenaline. The experiment can be described thus: Inhibition of the uptake of 3H-NA in brain slices after in vivo (i.p.) administration. Details: species or system mice. The conditions noted are these: for ED50: Mus musculus, ip, 0.5 h; for Inhibition of the uptake in vivo i.p. ED50 NA: 30 min. As to the method: (§1) The test method described in Europ. J. Pharmacol. 17, 107, 1972. This method involves the measurement of the decrease in the uptake of ^14C-5-hydroxytryptamine (^14C-5-HT) and ^3H- -noradrenaline (^3H-NA) in brain slices from mice after in vivo and in vitro administration of the test substance.
(§2) The test substances were administered intraperitoneally half an hour before the animals were killed. The midbrain was taken out, sliced and incubated in a mixture consisting of 0.2 nmole of ^14C-5-HT, 0.2 nmole of ^3H-NA and 11 µmole of glucose in 2 ml of Krebs Henseleit-buffer, pH 7.4 per 100 mg of brain slices. The incubation time was 5 minutes with 5 minutes of preincubation before the labelled amines were added. The slices were dissolved in Soluene and the amounts of radioactive amines taken u^p were determined by liquid scintillation. The doses producing 50 per cent decrease of the active uptake (ED50) of ^14C-5-HT and ^3H-NA were determined graphically from dose response curves. Active uptake is defined as that part of the radioactive uptake which is inhibited by a high concentration of cocaine.

Experiment [3] relates to neuronal uptake of 5-hydroxytryptamine. Kind of experiment: Inhibition of the uptake of 14C-5-HT in brain slices after in vivo (i.p.) administration. Conditions: for ED50: Mus musculus, ip, 0.5 h; for Inhibition of the uptake in vivo i.p. ED50 5-HT: 30 min. Set-up: species or system mice. As to the method: as §1, §2
Experiment [4] concerns the target neuronal uptake of noradrenaline (Mus musculus, UniProt O55192). Kind of experiment: Inhibition of the uptake of 3H-NA in mouse midbrain slices, in vitro administration. The experiment is classed as cell-based. The conditions noted are these: slices from mouse brain (midbrain), 5 min preincubation with compound. As to the method: as §1
as §2, with “Active uptake is defined as that part of the radioactive uptake which is inhibited by a high concentration of cocaine.” left out
(§3) In the vitro administration method slices of mouse midbrain were preincubated for 5 minutes with solution of the compound to be tested and then incubated as described above. The concentration producing 50 per cent inhibition of the active uptake IC50 of ^14C-5-HT and 3-H-NA was determined graphically from dose response curves.

Experiment [5] has as its target neuronal uptake of 5-hydroxytryptamine (Mus musculus, UniProt Q60857). The experiment can be described thus: Inhibition of the uptake of 14C-5-HT in mouse midbrain slices, in vitro administration. The experiment is classed as cell-based. Conditions: slices from mouse brain (midbrain), 5 min preincubation with compound. The procedure: as §1
as §2, with “Active uptake is defined as that part of the radioactive uptake which is inhibited by a high concentration of cocaine.” left out
as §3

Setting [6] is: i.p. half an hour before the animals were killed, midbrain slices, read-out: Inhibition of the uptake in vivo i.p. ED50 NA.
[7] abbreviates: i.p. half an hour before the animals were killed, midbrain slices, read-out: Inhibition of the uptake in vivo i.p. ED50 5-HT.
[8] abbreviates: i.p. half an hour before the animals were killed, midbrain slices.
Setting [9] is: i.p. half an hour before the animals were killed, midbrain slices, hydrochloride.
Setting [10] is: read-out: Inhibition of the uptake in vivo i.p. ED50 NA, i.p. half an hour before the animals were killed, midbrain slices.
Setting [11] is: read-out: Inhibition of the uptake in vivo i.p. ED50 5-HT, i.p. half an hour before the animals were killed, midbrain slices.

Where a name gives a salt, the structure may show the parent alone. Read-outs that look alike come from different tables or passages of the source.

Sequence of neuronal uptake of noradrenaline (Mus musculus, UniProt O55192) (O55192 whole entry): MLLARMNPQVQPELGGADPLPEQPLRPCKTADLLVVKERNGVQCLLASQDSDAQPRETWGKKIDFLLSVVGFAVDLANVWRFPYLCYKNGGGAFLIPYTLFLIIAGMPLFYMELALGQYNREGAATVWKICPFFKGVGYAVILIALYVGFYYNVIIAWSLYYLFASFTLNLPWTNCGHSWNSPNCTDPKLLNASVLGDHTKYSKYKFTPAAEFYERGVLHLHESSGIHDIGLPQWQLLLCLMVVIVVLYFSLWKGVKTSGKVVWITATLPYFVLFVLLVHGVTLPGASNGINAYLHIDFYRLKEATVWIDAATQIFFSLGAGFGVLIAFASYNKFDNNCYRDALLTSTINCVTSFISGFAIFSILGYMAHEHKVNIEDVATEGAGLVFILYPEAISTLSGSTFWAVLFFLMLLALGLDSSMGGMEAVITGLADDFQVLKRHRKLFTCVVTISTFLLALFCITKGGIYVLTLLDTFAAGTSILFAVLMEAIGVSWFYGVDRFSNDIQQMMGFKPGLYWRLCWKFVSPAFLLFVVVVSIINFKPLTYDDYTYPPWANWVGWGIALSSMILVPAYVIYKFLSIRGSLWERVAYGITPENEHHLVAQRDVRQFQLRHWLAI
Sequence of neuronal uptake of 5-hydroxytryptamine (Mus musculus, UniProt Q60857) (Q60857 whole entry): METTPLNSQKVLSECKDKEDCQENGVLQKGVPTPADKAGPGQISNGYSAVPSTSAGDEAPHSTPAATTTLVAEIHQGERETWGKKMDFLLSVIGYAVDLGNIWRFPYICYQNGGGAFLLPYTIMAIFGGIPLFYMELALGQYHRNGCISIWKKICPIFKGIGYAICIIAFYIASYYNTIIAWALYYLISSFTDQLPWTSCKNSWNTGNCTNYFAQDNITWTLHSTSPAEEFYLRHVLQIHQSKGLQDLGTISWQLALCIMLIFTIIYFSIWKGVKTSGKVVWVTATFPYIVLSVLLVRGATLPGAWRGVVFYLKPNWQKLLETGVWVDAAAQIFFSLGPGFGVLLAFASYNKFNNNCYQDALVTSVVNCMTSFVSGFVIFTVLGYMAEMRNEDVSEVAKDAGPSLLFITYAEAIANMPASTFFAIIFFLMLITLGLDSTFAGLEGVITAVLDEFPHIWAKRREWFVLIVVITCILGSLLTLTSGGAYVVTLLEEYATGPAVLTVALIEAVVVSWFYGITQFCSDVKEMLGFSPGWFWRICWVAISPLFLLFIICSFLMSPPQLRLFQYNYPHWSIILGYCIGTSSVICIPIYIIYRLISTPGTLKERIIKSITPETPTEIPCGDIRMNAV

On to `COc1ccc(C(CC(C)N)c2ccccc2)cc1` (single isomer, unassigned) [CPK 160], for which the “activity on uptake of noradrenaline and 5-hydroxytryptamine (assessment in words)” value (from here on “activity on uptake”) in experiment [1] is given as “pronounced non-selective activity”.
Broadly, the ED50 is the dose that gives a 50% effect, or the effect in half of the subjects. As for `CC(N)CC(c1ccccc1)c1ccc(F)cc1` (single isomer, unassigned) [CPK 163, (α)-3-(4-fluorophenyl)-1-methyl-3-phenylpropylamine oxalate], the ED50 in experiment [2] (setting [6]) and in experiment [3] (setting [7]) was 32 µmol/kg each time.
In the case of `CC(N)CC(c1ccccc1)c1ccc(Br)cc1` (single isomer, unassigned) [CPK 165, (α)-3-(4-bromophenyl)-1-methyl-3-phenylaropylamine maleate], the “Inhibition of the uptake in vivo i.p. ED50 NA” value in experiment [2] (setting [8]) was 62 µmol/kg. Also, the “Inhibition of the uptake in vivo i.p. ED50 5-HT” value in experiment [3] (setting [8]) was determined as 61 µmol/kg.
Take `CC(N)CC(c1ccccc1)c1ccc(F)cc1` (single isomer, unassigned) [CPK 170, (β)-3-(4-fluorophenyl)-1--methyl-3-phenylpropylamine hydrochloride]: in experiment [2] (setting [9]), the “Inhibition of the uptake in vivo i.p. ED50 NA” value is 34 µmol/kg. Further, the “activity on uptake” value in experiment [1] was “pronounced non-selective activity”. In addition, the “Inhibition of the uptake in vivo i.p. ED50 5-HT” value in experiment [3] (setting [9]) stood at 37 µmol/kg.
Take `CC(N)CC(c1ccccc1)c1ccc(Br)cc1` (single isomer, unassigned) [CPK 171, (β)-3-(4-bromophenyl)-1-methyl-3-phenylpropylamine]: the “Inhibition of the uptake in vivo i.p. ED50 NA” value in experiment [2] (setting [8]) amounted to 29 µmol/kg. In addition, the “activity on uptake” value in experiment [1] is on record as “pronounced non-selective activity”. For the same compound, in experiment [3] (setting [8]), the “Inhibition of the uptake in vivo i.p. ED50 5-HT” value came out at 29 µmol/kg.
On to `COc1ccc(C(CC(C)N)c2ccccc2)cc1` (single isomer, unassigned) [CPK 180, (α)-3-(4-methoxyphenyl)-1-methyl-3-phenylpropylamine], for which the ED50 was 78 µmol/kg in experiment [2] (setting [10]) and 54 µmol/kg in experiment [3] (setting [11]).
As for `CC(N)CC(c1ccccc1)c1cccc(Br)c1` (single isomer, unassigned) [CPK 184, (β)-3-(3-bromophenyl)-1-methyl-3-phenylpropylamine], the ED50 in experiment [2] (setting [6]) was found to be 7.7 µmol/kg; in experiment [3] (setting [7]), 9.9 µmol/kg. In experiment [1], the “activity on uptake” value was “pronounced non-selective activity”.
Take `CC(N)CC(c1ccccc1)c1ccccc1Br` (single isomer, unassigned) [CPK 185, (α)-3-(2-bromophenyl)-1-methyl-3-phenylpropylamine maleate]: in experiment [2] (setting [8]), the “Inhibition of the uptake in vivo i.p. ED50 NA” value came out at 4.1 µmol/kg. The “activity on uptake” value in experiment [1] is on record as “pronounced selective activity on uptake of noradrenaline”. Further, in experiment [3] (setting [8]), the “Inhibition of the uptake in vivo i.p. ED50 5-HT” value worked out at 5.7 µmol/kg.
In the case of `CC(N)CC(c1ccccc1)c1ccc(C(F)(F)F)cc1` (single isomer, unassigned) [CPK 195, (α)-1-methyl-3-(4-trifluoromethylphenyl)-3-phenylpropylamine maleate], the results for the ED50 in experiment [2] (setting [10]) and in experiment [3] (setting [11]) were more than 98 µmol/kg and 98 µmol/kg, respectively.
With `CC(N)CC(c1ccccc1)c1ccccc1Br` (single isomer, unassigned) [CPK 197, (β)-3-(2-bromophenyl)-1-methyl-3--phenyl-propylamine maleate], the “Inhibition of the uptake in vivo i.p. ED50 NA” value in experiment [2] (setting [8]) is 28 µmol/kg. For the same compound, the “Inhibition of the uptake in vivo i.p. ED50 5-HT” value in experiment [3] (setting [8]) is more than 95 µmol/kg.
`COc1ccc(C(CC(C)N)c2ccccc2)cc1` (single isomer, unassigned) [CPK 198, (β)-3-(4-methoxyphenyl)-1-methyl-3-phenylpropylamine]: in experiment [2] (setting [8]), the “Inhibition of the uptake in vivo i.p. ED50 NA” value was 52 µmol/kg. Further, in experiment [1], the “activity on uptake” value was “pronounced selective activity on uptake of 5-hydroxytryptamine”. In addition, in experiment [3] (setting [8]), the “Inhibition of the uptake in vivo i.p. ED50 5-HT” value was 33 µmol/kg.
Take `CC(N)CC(c1ccccc1)c1ccc(C(F)(F)F)cc1` (single isomer, unassigned) [CPK 199, (β)-1-methyl-3-(4-trifluoromethylphenyl)-3-phenylpropylamine maleate]: the “Inhibition of the uptake in vivo i.p. ED50 NA” value in experiment [2] (setting [8]) was more than 98 µmol/kg. Also, the “Inhibition of the uptake in vivo i.p. ED50 5-HT” value in experiment [3] (setting [8]) is more than 98 µmol/kg.
For the compound `CC(N)CC(c1ccccc1)c1ccccc1` (stereo not shown) [3,3-diphenyl-1-methylpropylamine fumarate, reference compound], the ED50 turned out to be 50 µmol/kg in experiment [2] (setting [6]) and 75 µmol/kg in experiment [3] (setting [7]).
For `CC(N)CC(c1ccccc1)c1cccc(Br)c1` (stereo not shown) [CPK 155, 3-(3-bromophenyl)-1-methyl-3-phenylpropylamine] the same measures were 49 µmol/kg and more than 95 µmol/kg.
For `CNC(C)CC(c1ccccc1)c1ccc(Br)cc1` (stereo not shown) [CPK 187, N, 1-dimethyl-3(4-bromophenyl)--3-phenylpropylamine] the same measures were more than 98 µmol/kg and 98 µmol/kg.
For `CC(N)/C=C(\c1ccccc1)c1ccc(Br)cc1` (stereo not shown) [CPK 204, (E)-3-amino-1-(4-bromophenyl)-1-phenylbutene oxalate] the same measures were 48 µmol/kg and 40 µmol/kg.
In the case of `CC(N)/C=C(\c1ccccc1)c1cccc(Br)c1` (stereo not shown) [CPK 215, (E)-3-amino-1-(3-bromophenyl)-1-phenylbutene], the median effective dose (ED50) came out at 24 µmol/kg in experiment [2] (setting [6]) and 96 µmol/kg in experiment [3] (setting [7]).
For `CC(N)/C=C(/c1ccccc1)c1cccc(Br)c1` (stereo not shown) [CPK 217, (Z)-3-amino-1-(3-bromophenyl)-1-phenylbutene] the same measures were 35 µmol/kg and 118 µmol/kg.
For `CC(N)/C=C(/c1ccc(Br)cc1)c1cccnc1` (stereo not shown) [CPP 179] the same measures were more than 89 µmol/kg and 89 µmol/kg.
For orientation: IC50 means the point on the concentration scale where inhibition reaches its midpoint. Consider `CN(C)CCCN1c2ccccc2CCc2ccc(Cl)cc21` [Chloroimipramine, reference compound], for which, in experiment [2] (setting [10]), the ED50 was 150 µmol/kg. For the same compound, the IC50 in experiment [4] turned out to be 900 nM.
In the case of `CC(N)C=C(c1ccc(Br)cc1)c1ccc(Br)cc1` (stereo not shown) [FLA 608, 3-amino-1,1-di(4-bromophenyl)-1--butene hydrochloride], the values for the ED50 in experiment [2] (setting [6]) and in experiment [3] (setting [7]) were 57 µmol/kg and 62 µmol/kg, respectively.
Take `COc1ccc(C(=CC(C)N)c2ccc(OC)cc2)cc1.O=C(O)/C=C/C(=O)O` (stereo not shown) [FLA 611, 3-amino-1,1-di(4-methoxyphenyl)--1-butene fumarate]: the ED50 stood at 108 µmol/kg in experiment [2] (setting [6]) and 63 µmol/kg in experiment [3] (setting [7]). Further, the “activity on uptake” value in experiment [1] is recorded as “pronounced selective activity on uptake of 5-hydroxytryptamine”.
In the case of `CC(N)C=C(c1ccc(F)cc1)c1ccc(F)cc1` (stereo not shown) [FLA 613, 3-amino-1,1-di-(4-fluorphenyl)-1-butene fumarate], the median effective dose (ED50) in experiment [2] (setting [6]) turned out to be 106 µmol/kg; in experiment [3] (setting [7]) it was 38 µmol/kg.
For `COc1ccc(C(CC(C)N)c2ccc(OC)cc2)cc1` (stereo not shown) [FLA 614, 3,3-di-(4-methoxyphenyl)-1-methyl--propylamine fumarate] the same measures were 100 µmol/kg and 25 µmol/kg.
Consider `CC(N)CC(c1ccc(F)cc1)c1ccc(F)cc1.Cl` (stereo not shown) [FLA 615, 3,3-di-(4-fluorophenyl)-1-methylpropylamine hydrochloride], for which the ED50 came to 57 µmol/kg in experiment [2] (setting [6]) and 29 µmol/kg in experiment [3] (setting [7]). Further, the “activity on uptake” value in experiment [1] was “pronounced selective activity on uptake of 5-hydroxytryptamine”.
`Cc1cccc(C(=CC(C)N)c2cccc(C)c2)c1` (stereo not shown) [FLA 618, 3-amino-1,1-di-(3-methylphenyl)-1-butene hydrochloride]: the ED50 in experiment [2] (setting [6]) is 56 µmol/kg; in experiment [3] (setting [7]) it was 93 µmol/kg.
For `Cc1cccc(C(CC(C)N)c2cccc(C)c2)c1` (stereo not shown) [FLA 619, 1,3', 3"-trimethyl-3,3-diphenyl-propylamine oxalate] the same measures were 48 µmol/kg and 116 µmol/kg.
As to `CNCC=C(c1ccc(Br)cc1)c1cccnc1` [N-methyl-3-(4-bromophenyl)-3-(3-pyridyl)-allylamine E-isomer, N-methyl-3-(4-bromophenyl)-3-(3-pyridyl)-allylamine, reference compound], in experiment [2] (setting [8]), the “Inhibition of the uptake in vivo i.p. ED50 NA” value amounted to 25 µmol/kg.
Regarding `CNCC=C(c1ccc(Br)cc1)c1cccnc1` [N-methyl-3-(4-bromophenyl)-3-(3-pyridyl)-allylamine Z-isomer, N-methyl-3-(4-bromophenyl)-3-(3-pyridyl)-allylamine, reference compound], the “Inhibition of the uptake in vivo i.p. ED50 NA” value in experiment [2] (setting [8]) was more than 102 µmol/kg. Also, in experiment [3] (setting [8]), the “Inhibition of the uptake in vivo i.p. ED50 5-HT” value is 19 µmol/kg.
In the case of “(Z)-3-amino-1-(4-bromophenyl)-1--phenylbutene maleate [CPK 150]”, the IC50 in experiment [5] was found to be 3000 nM; in experiment [4] it was 2000 nM. In addition, in experiment [2] (setting [8]), the “Inhibition of the uptake in vivo i.p. ED50 NA” value was found to be 96 µmol/kg. Also, the “Inhibition of the uptake in vivo i.p. ED50 5-HT” value in experiment [3] (setting [8]) was more than 96 µmol/kg.

Source of the values: patent EP0000322A1, “Compounds having an anti-depressive or tranquilizing activity, pharmaceutical compositions containing them, and processes and intermediates for their preparation” (priority 1977, dated 1979).
